Patent US12433959B2, “Injectable hydrogels for controlled release of immunomodulatory compounds” (THE BOARD OF TRUSTEES OF THE LELAND STANFORD JUNIOR …, priority 2018, dated 2025)
Values belong to the molecule of their own block, whether it stands above or below them.

Assay: Hydrodynamic radius (MALS) and diffusivity of cargo in PBS
Format: physicochemical
Conditions: for diffusivity value, D: corresponding to RH
Protocol: Values closer to 1 indicate more similar diffusivities of the OVA and Poly(I:C) (n=3). […] Values closer to 1 indicate that cargo diffusivity is limited by self-diffusion of the hydrogel (n=3).
OVA's hydrodynamic radius (RH) is 3.2 nm, corresponding to a diffusivity value, D, of 76.6 μm^2/s. Poly(I:C)'s was measured to be much larger, with an RH of 34.2 nm, using multi-angle light scattering (MALS), corresponding to a D value of 7.2 μm^2/s. This difference in size results in OVA having an over 10 times greater diffusivity than Poly(I:C) in PBS (FIG. 3C). […] The measured diffusivities for all experiments can be found in FIG. 16. With a standard injection volume in rodents (100 μL) and the release characteristics of PNP hydrogels, these OVA diffusivities correlate to release timeframes of approximately 2 and 3 weeks, respectively. Further, the ratio of OVA to Poly(I:C) diffusivities (DOVA/DPoly(I:C)) was 3.3 in the 1:5 gel, and only 1.4 in the 2:10 gel (FIG. 3C). When comparing the diffusivity of OVA to the self-diffusion of the hydrogel matrix (DOVA/DGel), which was determined by tracking the diffusivity of HPMC-C12 within the hydrogel, the ratio was 6.5 in the 1:5 gel, but only 4.7 in the 2:10 gel, while the ratio of Poly(I:C) to the hydrogel self-diffusion (DPoly(I:C)/DGel) was around 2 for the 1:5 gel and 3.5 for the 2:10 gel (FIG. 3D). […] The diffusion of OVA, however, is more limited by hydrogel self-diffusion in the 2:10 gel and appears to be small enough to diffuse more freely in the 1:5 gel (FIG. 3B). Accordingly, the diffusivity of both OVA and Poly(I:C) is restricted by the self-diffusion of the hydrogel network in the 2:10 gel and are thus similar to one another, enabling sustained co-delivery of the two cargo, despite their large difference in physicochemical properties.

hydrodynamic radius (RH): 34.2 nm
size of Poly(I:C) relative to OVA: 10 times larger
diffusivity value, D (in PBS): 7.2 μm^2/s
Molecule: Polyinosinic-polycytidylic acid [Poly(I:C)]

B1: ovalbumin (protein, UniProt P01012 2-386, looked up)
Ovalbumin: GSIGAASMEFCFDVFKELKVHHANENIFYCPIAIMSALAMVYLGAKDSTRTQINKVVRFDKLPGFGDSIEAQCGTSVNVHSSLRDILNQITKPNDVYSFSLASRLYAEERYPILPEYLQCVKELYRGGLEPINFQTAADQARELINSWVESQTNGIIRNVLQPSSVDSQTAMVLVNAIVFKGLWEKAFKDEDTQAMPFRVTEQESKPVQMMYQIGLFRVASMASEKMKILELPFASGTMSMLVLLPDEVSGLEQLESIINFEKLTEWTSSNVMEERKIKVYLPRMKMEEKYNLTSVLMAMGITDVFSSSANLSGISSAESLKISQAVHAAHAEINEAGREVVGSAEAGVDAASVSEEFRADHPFLFCIKHIATNAVLFFGRCVSP
notes: commonly used model antigen
hydrodynamic radius (RH): 3.2 nm
diffusivity of OVA relative to Poly(I:C) (in PBS): over 10 times greater
diffusivity value, D (in PBS): 76.6 μm^2/s
